Test: Hematology assays in cynomolgus monkeys (Example 45)
Type: in vivo
Conditions: for MCH / MCHC / MCV / RBC count / WBC count / hematocrit / hemoglobin: escalating dose regimen
Summary of the method: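 Cynomolgus monkeys (2 male, 3 female per group) dosed subcutaneously with antisense oligonucleotide or PBS, escalating 5, 10, then 25 mg/kg two to three times weekly over 12 weeks; one chronic group held at 10 mg/kg from week 4. Blood sampled weekly; necropsy on day 85.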

## ISIS 416864: MOE gapmer, nucleobases 1275 to 1318 of SEQ ID NO: 1 (Table 8) (antisense GGCAGCGGACGGCATTGGTG; MOE gapmer, wing and gap sizes not given here)
Day 64
  MCH: 23 pg
Day 71
  MCH: 23 pg
Day 78
  MCH: 23 pg
Day 85
  MCH: 23 pg
Day 8
  basophils: 0.2%
  eosinophils: 0.7%
  lymphocytes: 45%
  monocytes: 2.1%
  neutrophils: 52%
  platelet count: 438000 µL⁻¹
  reticulocytes: 0.8%
  MCH: 23 pg
  MCHC: 29 g/dL
  MCV: 78 fL
  RBC count: 5.7e+06 µL⁻¹
  WBC count: 11000 µL⁻¹
  hematocrit: 44%
  hemoglobin: 12.7 g/dL
Day 15
  basophils: 0.2%
  eosinophils: 0.5%
  lymphocytes: 38%
  monocytes: 2.4%
  neutrophils: 59%
  platelet count: 439000 µL⁻¹
  reticulocytes: 0.8%
  MCH: 23 pg
  MCHC: 30 g/dL
  MCV: 74 fL
  RBC count: 5.7e+06 µL⁻¹
  WBC count: 10000 µL⁻¹
  hematocrit: 42%
  hemoglobin: 12.8 g/dL
Day 22
  basophils: 0.2%
  eosinophils: 0.9%
  lymphocytes: 37%
  monocytes: 2.8%
  neutrophils: 59%
  platelet count: 364000 µL⁻¹
  reticulocytes: 0.9%
  MCH: 23 pg
  MCHC: 29 g/dL
  MCV: 79 fL
  RBC count: 5.3e+06 µL⁻¹
  WBC count: 10000 µL⁻¹
  hematocrit: 42%
  hemoglobin: 12.1 g/dL
Day 29
  basophils: 0.3%
  eosinophils: 0.9%
  lymphocytes: 51%
  monocytes: 3.4%
  neutrophils: 44%
  platelet count: 397000 µL⁻¹
  reticulocytes: 1.3%
  MCH: 23 pg
  MCHC: 29 g/dL
  MCV: 80 fL
  RBC count: 5.3e+06 µL⁻¹
  WBC count: 10000 µL⁻¹
  hematocrit: 43%
  hemoglobin: 12.1 g/dL
Day 36
  basophils: 0.3%
  eosinophils: 0.6%
  lymphocytes: 38%
  monocytes: 2.3%
  neutrophils: 58%
  platelet count: 428000 µL⁻¹
  reticulocytes: 1.3%
  MCH: 23 pg
  MCHC: 30 g/dL
  MCV: 76 fL
  RBC count: 5.6e+06 µL⁻¹
  WBC count: 10000 µL⁻¹
  hematocrit: 42%
  hemoglobin: 12.5 g/dL
Day 43
  basophils: 0.4%
  eosinophils: 0.6%
  lymphocytes: 39%
  monocytes: 2.1%
  neutrophils: 57%
  platelet count: 351000 µL⁻¹
  reticulocytes: 1.1%
  MCH: 22 pg
  MCHC: 29 g/dL
  MCV: 77 fL
  RBC count: 5.5e+06 µL⁻¹
  WBC count: 10000 µL⁻¹
  hematocrit: 42%
  hemoglobin: 12.2 g/dL
Day 50
  basophils: 0.4%
  eosinophils: 0.7%
  lymphocytes: 46%
  monocytes: 2.9%
  neutrophils: 49%
  platelet count: 419000 µL⁻¹
  reticulocytes: 1.3%
  MCH: 22 pg
  MCHC: 28 g/dL
  MCV: 79 fL
  RBC count: 5.6e+06 µL⁻¹
  WBC count: 12000 µL⁻¹
  hematocrit: 44%
  hemoglobin: 12.1 g/dL
Day 57
  basophils: 0.3%
  eosinophils: 0.4%
  lymphocytes: 39%
  monocytes: 2.4%
  neutrophils: 57%
  platelet count: 409000 µL⁻¹
  reticulocytes: 1.0%
  MCH: 23 pg
  MCHC: 29 g/dL
  MCV: 77 fL
  RBC count: 5.5e+06 µL⁻¹
  WBC count: 12000 µL⁻¹
  hematocrit: 42%
  hemoglobin: 12.3 g/dL
Day 64
  basophils: 0.4%
  eosinophils: 0.7%
  lymphocytes: 46%
  monocytes: 2.8%
  neutrophils: 49%
  platelet count: 383000 µL⁻¹
  reticulocytes: 0.8%
  MCHC: 29 g/dL
  MCV: 75 fL
  RBC count: 5.6e+06 µL⁻¹
  WBC count: 11000 µL⁻¹
  hematocrit: 42%
  hemoglobin: 12.1 g/dL
Day 71
  basophils: 0.4%
  eosinophils: 1.1%
  lymphocytes: 52%
  monocytes: 3.7%
  neutrophils: 42%
  platelet count: 394000 µL⁻¹
  reticulocytes: 1.0%
  MCHC: 28 g/dL
  MCV: 79 fL
  RBC count: 5.6e+06 µL⁻¹
  WBC count: 14000 µL⁻¹
  hematocrit: 44%
  hemoglobin: 12.2 g/dL
Day 78
  basophils: 0.3%
  eosinophils: 1.2%
  lymphocytes: 46%
  monocytes: 3.7%
  neutrophils: 48%
  platelet count: 366000 µL⁻¹
  reticulocytes: 1.2%
  MCHC: 30 g/dL
  MCV: 74 fL
  RBC count: 5.3e+06 µL⁻¹
  WBC count: 11000 µL⁻¹
  hematocrit: 39%
  hemoglobin: 11.9 g/dL
Day 85
  basophils: 0.4%
  eosinophils: 1.6%
  lymphocytes: 54%
  monocytes: 3.7%
  neutrophils: 39%
  platelet count: 387000 µL⁻¹
  reticulocytes: 1.5%
  MCHC: 30 g/dL
  MCV: 74 fL
  RBC count: 5.4e+06 µL⁻¹
  WBC count: 12000 µL⁻¹
  hematocrit: 40%
  hemoglobin: 12.3 g/dL
Day −5
  basophils: 0.2%
  eosinophils: 0.9%
  lymphocytes: 44%
  monocytes: 3.3%
  neutrophils: 51%
  platelet count: 456000 µL⁻¹
  reticulocytes: 0.9%
  MCH: 23 pg
  MCHC: 29 g/dL
  MCV: 79 fL
  RBC count: 5.6e+06 µL⁻¹
  WBC count: 13000 µL⁻¹
  hematocrit: 44%
  hemoglobin: 13.0 g/dL
Day −14
  basophils: 0.2%
  eosinophils: 1.0%
  lymphocytes: 42%
  monocytes: 2.8%
  neutrophils: 53%
  platelet count: 434000 µL⁻¹
  reticulocytes: 0.9%
  MCH: 23 pg
  MCHC: 29 g/dL
  MCV: 79 fL
  RBC count: 5.5e+06 µL⁻¹
  WBC count: 13000 µL⁻¹
  hematocrit: 43%
  hemoglobin: 12.7 g/dL

Source: patent US20230263822A1, “MODULATION OF FACTOR 11 EXPRESSION” (Ionis Pharmaceuticals, Inc., priority 2008, published 2023)
